Data taken from ChEMBL document CHEMBL1201862, “PubChem BioAssay data set” (2004).
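Assay format: 96-well plates, 48-hour exposure. GI50 = concentration required for 50% inhibition of growth.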 Activity calls are given as the source filed them. No stated cut-off is given here; in the data, active = GI50 up to about 1.1 µM and inactive = higher.

How the values were obtained:
Experiment in all cases: DTP human tumour cell line panel, 48 h
A549 = test system: A549
MOLT-4 = test system: MOLT-4
SK-MEL-28 = test system: SK-MEL-28
Malme-3M = test system: Malme-3M
DU-145 = test system: DU-145
COLO 205 = test system: COLO 205
SR = test system: SR
ACHN = test system: ACHN
LXFL 529 = test system: LXFL 529
BT-549 = test system: BT-549
OVCAR-4 = test system: OVCAR-4
SN12C = test system: SN12C
MDA-MB-231 = test system: MDA-MB-231
TK-10 = test system: TK-10
786-0 = test system: 786-0
HL-60 = test system: HL-60
Hs-578T = test system: Hs-578T
MDA-MB-435 = test system: MDA-MB-435
A498 = test system: A498
PC-3 = test system: PC-3
HOP-62 = test system: HOP-62
HCC 2998 = test system: HCC 2998
IGROV-1 = test system: IGROV-1
NCI-H522 = test system: NCI-H522
KM12 = test system: KM12
MCF7 = test system: MCF7
HCT-15 = test system: HCT-15
NCI-H460 = test system: NCI-H460
UO-31 = test system: UO-31
NCI-H23 = test system: NCI-H23
U-251 = test system: U-251
SF-295 = test system: SF-295
SK-MEL-2 = test system: SK-MEL-2
SNB-75 = test system: SNB-75
SK-OV-3 = test system: SK-OV-3
HT-29 = test system: HT-29
MDA-N = test system: MDA-N
M14 = test system: M14
OVCAR-3 = test system: OVCAR-3
M19-MEL = test system: M19-MEL
SF-268 = test system: SF-268
K562 = test system: K562
SK-MEL-5 = test system: SK-MEL-5
SF-539 = test system: SF-539
UACC-257 = test system: UACC-257
NCI-H226 = test system: NCI-H226
CCRF-CEM = test system: CCRF-CEM
EKVX = test system: EKVX
OVCAR-5 = test system: OVCAR-5
SNB-19 = test system: SNB-19
RPMI-8226 = test system: RPMI-8226
HOP-92 = test system: HOP-92
NCI/ADR-RES = test system: NCI/ADR-RES
SW-620 = test system: SW-620
HCT-116 = test system: HCT-116
HOP-18 = test system: HOP-18
OVCAR-8 = test system: OVCAR-8
UACC-62 = test system: UACC-62
DLD-1 = test system: DLD-1
DMS-273 = test system: DMS-273
SNB-78 = test system: SNB-78
CAKI-1 = test system: CAKI-1
KM-20L2 = test system: KM-20L2
LOX IMVI = test system: LOX IMVI
DMS-114 = test system: DMS-114

CCOC(=O)C1=C(N)N(c2ccccc2)/C(=C2\SC(=S)N(c3ccc(C)cc3)C2=O)S1
GI50 (A549): 52.1 µM (inactive)
GI50 (MOLT-4): 60.8 µM (inactive)
GI50 (SK-MEL-28): 23.4 µM (inactive)
GI50 (Malme-3M): 51.1 µM (inactive)
GI50 (DU-145): 89.9 µM (inactive)
GI50 (COLO 205): > 100 µM (inactive)
GI50 (SR): > 100 µM (inactive)
GI50 (ACHN): 76 µM (inactive)
GI50 (LXFL 529): 59.2 µM (inactive)
GI50 (BT-549): 90.2 µM (inactive)
GI50 (OVCAR-4): 18 µM (inactive)
GI50 (SN12C): 35.8 µM (inactive)
GI50 (MDA-MB-231): 22.6 µM (inactive)
GI50 (TK-10): 48.4 µM (inactive)
GI50 (786-0): 29.3 µM (inactive)
GI50 (HL-60): 71.6 µM (inactive)
GI50 (Hs-578T): 25 µM (inactive)
GI50 (MDA-MB-435): > 100 µM (inactive)
GI50 (A498): 31.4 µM (inactive)
GI50 (PC-3): 51.4 µM (inactive)
GI50 (HOP-62): 22.2 µM (inactive)
GI50 (HCC 2998): 50.1 µM (inactive)
GI50 (IGROV-1): > 100 µM (inactive)
GI50 (NCI-H522): 34.3 µM (inactive)
GI50 (KM12): > 100 µM (inactive)
GI50 (MCF7): 87.5 µM (inactive)
GI50 (HCT-15): > 100 µM
GI50 (NCI-H460): 75.2 µM (inactive)
GI50 (UO-31): 68.2 µM (inactive)
GI50 (NCI-H23): 47.4 µM (inactive)
GI50 (U-251): 29.6 µM (inactive)
GI50 (SF-295): 21 µM (inactive)
GI50 (SK-MEL-2): 73.3 µM (inactive)
GI50 (SNB-75): 3.99 µM (inactive)
GI50 (SK-OV-3): 26.9 µM (inactive)
GI50 (HT-29): 47.3 µM (inactive)
GI50 (MDA-N): > 100 µM (inactive)
GI50 (M14): > 100 µM (inactive)
GI50 (OVCAR-3): 27.9 µM (inactive)
GI50 (M19-MEL): > 100 µM (inactive)
GI50 (SF-268): 29.5 µM (inactive)
GI50 (K562): 36.8 µM (inactive)
GI50 (SK-MEL-5): 54.8 µM (inactive)
GI50 (SF-539): 14.8 µM (inactive)
GI50 (UACC-257): 42.3 µM (inactive)
GI50 (NCI-H226): 33.6 µM (inactive)
GI50 (CCRF-CEM): 54.2 µM (inactive)
GI50 (EKVX): > 100 µM (inactive)
GI50 (OVCAR-5): 61.9 µM (inactive)
GI50 (SNB-19): 29.7 µM (inactive)
GI50 (RPMI-8226): 93.1 µM (inactive)
GI50 (HOP-92): 30.5 µM (inactive)
GI50 (NCI/ADR-RES): 50.5 µM (inactive)
GI50 (SW-620): > 100 µM (inactive)
GI50 (HCT-116): 63.2 µM (inactive)
GI50 (HOP-18): 45.2 µM (inactive)
GI50 (OVCAR-8): 33.3 µM (inactive)
GI50 (UACC-62): 88.7 µM (inactive)

O/N=C(\c1ccccc1)N1CCCCC1
GI50 (A549): > 100 µM (inactive)
GI50 (DLD-1): > 100 µM (inactive)
GI50 (Malme-3M): 4.19 µM (inactive)
GI50 (COLO 205): > 100 µM (inactive)
GI50 (SR): > 100 µM (inactive)
GI50 (DMS-273): > 100 µM (inactive)
GI50 (LXFL 529): > 100 µM (inactive)
GI50 (OVCAR-4): > 100 µM (inactive)
GI50 (SN12C): > 100 µM (inactive)
GI50 (786-0): > 100 µM (inactive)
GI50 (HL-60): > 100 µM (inactive)
GI50 (HOP-62): 92.3 µM (inactive)
GI50 (HCC 2998): > 100 µM (inactive)
GI50 (NCI-H522): > 100 µM (inactive)
GI50 (KM12): > 100 µM (inactive)
GI50 (SNB-78): > 100 µM (inactive)
GI50 (NCI-H460): > 100 µM (inactive)
GI50 (UO-31): 66.5 µM (inactive)
GI50 (NCI-H23): > 100 µM (inactive)
GI50 (U-251): > 100 µM (inactive)
GI50 (SF-295): > 100 µM (inactive)
GI50 (SK-MEL-2): > 100 µM (inactive)
GI50 (SNB-75): 82.8 µM (inactive)
GI50 (HT-29): > 100 µM (inactive)
GI50 (M14): > 100 µM (inactive)
GI50 (OVCAR-3): > 100 µM (inactive)
GI50 (SF-268): > 100 µM (inactive)
GI50 (CAKI-1): > 100 µM (inactive)
GI50 (KM-20L2): > 100 µM (inactive)
GI50 (SF-539): > 100 µM (inactive)
GI50 (LOX IMVI): > 100 µM (inactive)
GI50 (UACC-257): > 100 µM (inactive)
GI50 (OVCAR-5): > 100 µM (inactive)
GI50 (SNB-19): > 100 µM (inactive)
GI50 (HOP-92): > 100 µM (inactive)
GI50 (SW-620): > 100 µM (inactive)
GI50 (HCT-116): > 100 µM (inactive)
GI50 (HOP-18): < 0.01 µM (active)
GI50 (DMS-114): > 100 µM (inactive)
GI50 (OVCAR-8): > 100 µM (inactive)
